This is an account of results in EP2949653A1, “ISOXAZOLE DERIVATIVES AS LEUKOTRIENE BIOSYNTHESIS INHIBITORS” (Banoglu, Erden, priority 2014, dated 2015).

For assay [1], the system named is 5-LO mediated product formation. As to the kind of experiment: 5-LO mediated product formation in intact neutrophils stimulated with A23187 (cell-based). Particulars: for IC50: Neutrophil, intact human neutrophils stimulated with 2.5 µM A23187, mean ± SE, n = 3-4, read-out: Inhibition of purified 5-LO activity IC50 (µM) cell based; for activity at 1 µM / activity at 10 µM: PMNL, human neutrophils, 2.5 µM A23187, means ± SE, n = 3-6; for activity at 1 µM: remaining activity at 1 µM inhibitor, read-out: 5-LO mediated product formation in intact neutrophils (PMNL) (% of control) at 1 µM; for activity at 10 µM: remaining activity at 10 µM inhibitor, read-out: 5-LO mediated product formation in intact neutrophils (PMNL) (% of control) at 10 µM. On the set-up: species or system human. Here is the method:
(§1) Cell based and cell-free assays carried out in biological studies, immunofluorescence microscopy analysis and zymosan-induced peritonitis in mice are performed as described hereinabove (Pegola, C. and et al., British J. Pharmacology, 2014, D01:10.1111/bph.12625). In the cell based assays (intact neutrophils or monocytes), 5-LO mediated product formation is started, after pre-incubation with test compounds (or control DMSO) for 15 min. at 37 °C, with addition of Ca-ionophore A23187 (2.5 µM) to the fresh 5 x 10^6 neutrophils or monocytes suspended in 1 ml of PGC buffer (phosphate buffered saline (PBS) solution containing 1 mg ml^-1 glucose and 1mM CaCl2, pH 7.4). After the incubation for 10 min. at 37 °C, the reaction is ended with addition of 1 ml of methanol, and 30 µL 1 N HCl, 200 ng prostaglandin B1 and 500 µL PBS are added to the mixture. In cell-free assays (isolated 5-LO and cell homogenates), human recombinant 5-LO protein or 40,000g supernatant is added to 1 ml of 5-LO reaction mixture (PBS, pH 7.4, 1 mM EDTA, 1 mM ATP), and then incubated with test compounds (or control DMSO) for 10 min. at 4°C, heated to 37 °C and 2 mM CaCl2 as well as AA at certain concentrations are added. The reaction is ended as described for the cell-based assays. Resulting 5-LO mediated products are extracted and analysed by the known method of high pressure liquid chromatography (HPLC) (Pergola, C. Proc Natl. Acad. Sci. U.S.A. 2008, 105, 19881). 5-LO mediated product formation (LTB4 and all trans isomers, and 5 (S)-hydro(pero)xy-6-trans-8, 11, 14-cis-eicosatetraenoic acid, 5-H(p)ETE) is expressed as ng per 10^6 cell. Cysteinyl-LTs have not been analyzed because that the amount of C4, D4 and E4 and LTB4 oxidation products are below the detection limit.
(§2) Compounds were tested in intact human neutrophils stimulated with 2.5 µM A23187 under cell based conditions and on purified 5-LO under cell free conditions. ^aData are given as remaining activity as a percentage of control (100%) at 10 µM or 1 µM inhibitor concentrations (means ± SE, n = 3-6).
Compound 9hj inhibited 5-LO mediated product formation with IC50 of 60 nM in human neutrophils. Neutrophils are stimulated with Ca-ionophore A23187 (2.5 µM), without the addition of exogenous arachidonic acid (AA), after pre-incubation with 9hj or vehicle (0.1 % DMSO). 100% controls correspond to 275.7 ng mL^-1 of 5-LO mediated products (Figure 1).
100% controls correspond to 328.97 ng mL^-1 of 5-LO mediated products.

Assay [2] has as its target T1, purified 5-LO (Homo sapiens, UniProt P09917).
T1 sequence (P09917 1-674): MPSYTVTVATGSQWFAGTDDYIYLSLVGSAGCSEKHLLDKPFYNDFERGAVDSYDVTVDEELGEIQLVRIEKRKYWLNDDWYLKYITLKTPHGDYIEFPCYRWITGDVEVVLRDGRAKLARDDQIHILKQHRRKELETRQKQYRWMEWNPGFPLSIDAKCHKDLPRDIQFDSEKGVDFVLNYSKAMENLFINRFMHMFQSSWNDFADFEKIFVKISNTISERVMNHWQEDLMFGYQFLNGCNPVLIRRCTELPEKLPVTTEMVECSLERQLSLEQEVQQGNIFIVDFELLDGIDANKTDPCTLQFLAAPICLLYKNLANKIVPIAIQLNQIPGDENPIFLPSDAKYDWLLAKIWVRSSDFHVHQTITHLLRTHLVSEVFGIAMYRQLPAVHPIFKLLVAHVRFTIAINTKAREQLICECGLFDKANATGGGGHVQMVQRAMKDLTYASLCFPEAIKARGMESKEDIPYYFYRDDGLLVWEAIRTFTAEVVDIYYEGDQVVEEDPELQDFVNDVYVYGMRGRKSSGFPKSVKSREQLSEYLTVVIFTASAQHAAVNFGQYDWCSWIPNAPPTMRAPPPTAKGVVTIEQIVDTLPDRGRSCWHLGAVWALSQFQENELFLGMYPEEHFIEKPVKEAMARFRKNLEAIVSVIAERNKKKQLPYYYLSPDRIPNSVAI
Put plainly: Purified / human recombinant 5-LO activity (cell-free). Format: biochemical. Conditions: purified 5-LO under cell free conditions; mean ± SE, n = 3-4; read-out: Inhibition of purified 5-LO activity IC50 (µM) cell-free. Here is the method:
as §1, §2
9hj was added 15 min before addition of 2 mM Ca^2+ plus 3 µM, 10 µM and 30 µM AA. 100% controls correspond to 200.35 ng mL^-1 for 3 µM AA, 514.36 ng mL^-1 for 10 µM AA and 537.73 ng mL^-1 for 30 µM AA.

Assay [3] addresses T1, purified 5-LO. Described as above. Format: biochemical. Particulars: remaining 5-LO activity (percentage of uninhibited control) at 30 µM test compound.
Assay [4] concerns 5-LO mediated product formation. Conditions: literature value, Banoglu et al. Bioorg. Med. Chem. 2012, 20, 3728; read-out: IC50PMNL (cell-based assay); cited from earlier work.
Assay [5] has as its target T1, purified 5-LO. Particulars: literature value, Banoglu et al. Bioorg. Med. Chem. 2012, 20, 3728; read-out: IC50cell-free; cited from earlier work.

Molecules are shown by their SMILES. Where two headings read alike, the source gives them in different places.

One may read the remaining activity as the share of the control activity or signal that is left under treatment. As for `Cc1cc(OCc2ccccc2Cl)ccc1-c1onc(C(=O)O)c1-c1ccc(Cl)cc1` [Compound 9ek, 5-(4-((2-Chlorobenzyl)oxy)-2-methylphenyl)-4-(4-chlorophenyl)isoxazole-3-carboxylic acid], in assay [1], the IC50 turned out to be 1.45 ± 0.09 µM, the activity at 1 µM is 54.9 ± 6.46% and the activity at 10 µM was 2.86 ± 2.59%. Further, the IC50 on purified 5-LO [2] was above 30 µM. For the same compound, the remaining activity at 30 µM on purified 5-LO [3] was 51%.
On the same counts, the results for `Cc1cc(OCc2ccccc2C(F)(F)F)ccc1-c1onc(C(=O)O)c1-c1ccc(Cl)cc1` [Compound 9fk, 4-(4-Chlorophenyl)-5-(2-methyl-4-((2-(trifluoromethyl)benzyl)oxy)phenyl)isoxazole-3-carboxylic acid] are 0.82 ± 0.17 µM, 44 ± 10.3%, 3.48 ± 3.05%, above 30 µM and 62%.
The like results for `Cc1cc(OCc2ccccn2)ccc1-c1onc(C(=O)O)c1-c1ccc(Cl)cc1` [Compound 9gk, 4-(4-Chlorophenyl)-5-(2-methyl-4-(pyridin-2-ylmethoxy)phenyl)isoxazole-3-carboxylic acid] were, in that order, 1.81 ± 0.11 µM, 73.2 ± 7.42%, 0.45 ± 0.45%, above 30 µM and 73%.
The like results for `Cc1cc(OCc2ccc3ccccc3n2)ccc1-c1onc(C(=O)O)c1-c1ccc(Cl)cc1` [Compound 9hk, 4-(4-Chlorophenyl)-5-(2-methyl-4-(quinolin-2-ylmethoxy)phenyl)isoxazole-3-carboxylic acid] were, in that order, 9.07 ± 1.98 µM, 69.1 ± 5.53%, 44.2 ± 15.7%, above 30 µM and 75%.
Regarding `Cc1ccccc1COc1ccc(-c2onc(C)c2-c2ccc(Cl)cc2)c(O)c1` [Compound A, reference compound], the IC50 in assay [1] was 4.42 ± 1.13 µM; at purified 5-LO [2] it was 1.9 ± 0.46 µM; in assay [4], 4.4 µM; at purified 5-LO [5], 1.9 µM. The activity at 1 µM in assay [1] was 66.7 ± 11.5%. For the same compound, the activity at 10 µM in assay [1] turned out to be 3 ± 0.7%.
